# Calls of active or inactive are those of the source.
# What was measured:
# [1] = target: T1, Aminopeptidase N (Plasmodium falciparum FcB1/Columbia, UniProt O96935); assay: P. falciparum M1AAP inhibitors, biochemical, fluorogenic H-Leu-NHMec substrate, 1536-well (AID 1445); design: species or system Plasmodium falciparum 3D7, 3D7
# T1 sequence (O96935 whole entry): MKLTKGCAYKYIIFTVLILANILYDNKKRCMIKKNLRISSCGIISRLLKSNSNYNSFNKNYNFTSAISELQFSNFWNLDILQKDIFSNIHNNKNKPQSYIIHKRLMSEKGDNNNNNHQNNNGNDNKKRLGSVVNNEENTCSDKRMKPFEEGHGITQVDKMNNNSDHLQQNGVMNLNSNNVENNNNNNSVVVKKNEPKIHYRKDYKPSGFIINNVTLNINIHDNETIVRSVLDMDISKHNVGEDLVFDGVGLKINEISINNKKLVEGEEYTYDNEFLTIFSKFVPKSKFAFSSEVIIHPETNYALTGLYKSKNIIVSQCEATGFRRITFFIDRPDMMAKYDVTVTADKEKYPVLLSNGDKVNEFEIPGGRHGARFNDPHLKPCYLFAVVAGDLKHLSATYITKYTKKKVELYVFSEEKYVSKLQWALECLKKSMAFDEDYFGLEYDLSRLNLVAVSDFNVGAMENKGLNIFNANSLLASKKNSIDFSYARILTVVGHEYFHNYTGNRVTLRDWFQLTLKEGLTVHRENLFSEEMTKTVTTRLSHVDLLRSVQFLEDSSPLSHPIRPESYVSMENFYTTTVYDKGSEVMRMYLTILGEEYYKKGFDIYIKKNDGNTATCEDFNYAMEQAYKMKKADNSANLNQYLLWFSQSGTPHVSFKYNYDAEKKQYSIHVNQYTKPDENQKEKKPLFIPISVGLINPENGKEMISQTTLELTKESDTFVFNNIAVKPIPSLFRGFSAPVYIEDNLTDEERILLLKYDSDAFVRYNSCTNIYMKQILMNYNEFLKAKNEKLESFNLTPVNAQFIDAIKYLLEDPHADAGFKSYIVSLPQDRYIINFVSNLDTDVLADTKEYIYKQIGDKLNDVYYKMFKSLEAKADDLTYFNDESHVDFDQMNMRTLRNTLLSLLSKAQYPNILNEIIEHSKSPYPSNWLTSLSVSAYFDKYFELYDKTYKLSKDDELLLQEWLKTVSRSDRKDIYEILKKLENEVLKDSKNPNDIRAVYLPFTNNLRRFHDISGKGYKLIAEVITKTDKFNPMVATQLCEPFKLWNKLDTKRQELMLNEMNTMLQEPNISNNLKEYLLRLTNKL
# [2] = target: Voltage-dependent T-type calcium channel subunit alpha-1H (Homo sapiens, UniProt O95180); assay type: functional;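 note: channel activity triggered by adding a high calcium stimulation buffer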
# [3] = target: Luciferin 4-monooxygenase (Photinus pyralis, UniProt P08659); assay: firefly luciferase enzyme inhibitors, dose response, biochemical, luminescence (AID 1891)
# [4] = Luminescence Cell-Based Dose Confirmation HTS to Identify Inhibitors of Platelet Dense Granule Release. [Related pubchem assays: 1663 (Primary HTS), 1678 (Summary of Project)]; assay type: functional
# [5] = microbe, parasite or virus in culture; assay type: functional; settings: Mycobacterium tuberculosis
# [6] = Luminescence Cell-Based Dose Retest to Confirm Inhibitors of Cancer Stem Cells. [Related pubchem assays (depositor defined):AID2717, AID2721]; assay type: functional; settings: Homo sapiens
# [7] = NIH-3T3 fibroblast cytotoxicity, dose response, cytotoxicity control, cell-based, fluorescence, Alamar Blue, secondary assay (AID 2327); assay type: functional;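 note: NIH-3T3 mouse fibroblasts cultured with fluconazole at 8 µg/mL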
# [8] = C. albicans growth with fluconazole, confirmation, fluorescence, retest (AID 2467); assay type: functional, cell-based
# [9] = target: T2, Mannose-6-phosphate isomerase (Homo sapiens, UniProt P34949); assay: human PMI inhibitors, high substrate, primary screen, biochemical, fluorescence intensity, high mannose 6-phosphate (AID 1220)
# T2 sequence (P34949 whole entry): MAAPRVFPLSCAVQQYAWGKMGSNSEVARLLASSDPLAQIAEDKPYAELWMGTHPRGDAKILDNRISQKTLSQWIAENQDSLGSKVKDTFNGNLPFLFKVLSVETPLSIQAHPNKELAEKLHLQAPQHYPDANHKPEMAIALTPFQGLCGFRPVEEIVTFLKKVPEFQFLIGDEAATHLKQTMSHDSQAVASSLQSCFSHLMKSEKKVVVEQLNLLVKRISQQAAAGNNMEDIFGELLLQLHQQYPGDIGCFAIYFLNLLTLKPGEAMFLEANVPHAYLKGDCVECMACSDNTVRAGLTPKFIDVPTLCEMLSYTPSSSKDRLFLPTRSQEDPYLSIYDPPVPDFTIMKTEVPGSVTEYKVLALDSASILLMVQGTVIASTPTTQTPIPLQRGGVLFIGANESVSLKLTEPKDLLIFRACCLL
# [10] = system: H9c2; assay: cells; assay type: functional, cell-based; settings: Rattus norvegicus, H9c2, Myocardium;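 note: confirmatory concentration-response retest of ultra-high-throughput screening hits for modulation of myocardial damage; cell death induced by hydrogen peroxide oxidative stress; compound pretreatment for 60 min then peroxide exposure for 2 h; potency is for protecting the cells against peroxide damage rather than for killing them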
# [11] = target: T3, Cytochrome P450 1A2 (Homo sapiens, UniProt P05177);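 note: PubChem cytochrome P450 panel assay, CYP1A2 panel member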
# T3 sequence (P05177 whole entry): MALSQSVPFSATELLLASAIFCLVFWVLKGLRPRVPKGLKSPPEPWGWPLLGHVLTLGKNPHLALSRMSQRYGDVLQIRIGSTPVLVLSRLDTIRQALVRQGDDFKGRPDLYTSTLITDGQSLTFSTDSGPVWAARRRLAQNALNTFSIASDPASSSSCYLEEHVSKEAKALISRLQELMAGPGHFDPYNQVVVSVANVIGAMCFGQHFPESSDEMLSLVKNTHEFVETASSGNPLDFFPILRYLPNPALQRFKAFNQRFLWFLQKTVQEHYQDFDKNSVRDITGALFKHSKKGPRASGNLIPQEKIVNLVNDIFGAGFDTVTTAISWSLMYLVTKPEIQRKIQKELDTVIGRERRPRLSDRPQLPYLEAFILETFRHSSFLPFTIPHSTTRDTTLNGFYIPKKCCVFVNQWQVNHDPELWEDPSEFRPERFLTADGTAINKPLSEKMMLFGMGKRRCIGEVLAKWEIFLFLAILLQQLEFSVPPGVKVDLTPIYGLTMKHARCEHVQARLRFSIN
# [12] = inhibitors of firefly luciferase expression or activity, dose response, H4 neuroglioma cells, luminescence (AID 1990); assay type: functional, cell-based
# [13] = Luminescence Cell-Based Dose Response HTS to Identify Inhibitors of 5'UTR Stem-Loop Driven Prion Protein mRNA Translation in H4 Neuroglioblastoma Cells. [Related pubchem assays: 1827 (Project Summary), 1813 (Primary HTS)]; assay type: functional
# [14] = inhibitors of SNCA 5'UTR-driven reporter translation, confirmation, H4 neuroglioma cells, luminescence (AID 1988); assay type: functional, cell-based
# [15] = target: T4, Fatty acid synthase (Homo sapiens, UniProt P49327); assay: FAS thioesterase domain inhibitors, dose response, biochemical, endpoint fluorescence intensity, uHTS hits (AID 624327); assay type: functional;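 note: fluorescence from hydrolysis of an O-methyl fluorescein acyl ester substrate by the enzyme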
# [16] = target: T4, Fatty acid synthase; assay: FAS thioesterase domain inhibitors, dose response, biochemical, kinetic fluorescence intensity (AID 624326); assay type: functional;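 note: rate of fluorescence rise from hydrolysis of a fluorogenic O-methyl fluorescein ester substrate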
# [17] = target: T5, Calpain-2 catalytic subunit (Sus scrofa, UniProt P43367); assay: pig calpain II inhibitor potency, dose response, biochemical, fluorogenic peptide substrate (AID 1420); assay type: functional
# T5 sequence (P43367 whole entry): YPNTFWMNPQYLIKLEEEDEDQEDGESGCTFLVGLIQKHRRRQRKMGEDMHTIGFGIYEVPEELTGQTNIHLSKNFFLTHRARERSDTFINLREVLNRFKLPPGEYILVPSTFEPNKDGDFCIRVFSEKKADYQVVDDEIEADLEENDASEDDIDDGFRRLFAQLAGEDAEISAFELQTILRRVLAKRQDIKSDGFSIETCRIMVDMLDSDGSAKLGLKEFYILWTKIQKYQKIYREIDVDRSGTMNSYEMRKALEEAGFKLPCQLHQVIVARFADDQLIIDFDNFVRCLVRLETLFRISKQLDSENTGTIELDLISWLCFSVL
# [18] = inhibitors of intracellular T. cruzi replication, confirmation, NIH3T3 host cells, beta-gal luminescence (AID 2044); assay type: functional, cell-based;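 note: intracellular parasites grown in NIH/3T3 mouse fibroblasts as host cells; luminescent beta-galactosidase reporter signal from transgenic T. cruzi replicating inside host cells; inhibitors lower the luminescence signal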
# [19] = cytotoxicity toward NIH3T3 fibroblasts, dose response, counter-screen, cell-based, ATP luminescence, mouse fibroblasts (AID 2010); assay type: functional;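 note: cells exposed to compound for about 90 hours before reading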
# [20] = HEp-2 cell cytotoxicity, dose response, cytotoxicity control for RSV inhibitor project, HTS (AID 2410); assay type: functional; settings: human respiratory syncytial virus
# [21] = system: BJ; assay: cytotoxicity toward BJ-TERT fibroblasts, dose response, cell-based, RAS-independent, luminescence (AID 1933); assay type: functional; settings: Homo sapiens
# [22] = system: BJ; assay: cells; assay type: functional, cell-based; settings: Homo sapiens
# [23] = system: BJ; assay: cytotoxicity toward BJ-TERT-LT-ST fibroblasts, dose response, cell-based, RAS-independent, luminescence (AID 1935); assay type: functional; settings: Homo sapiens;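 note: BJ fibroblasts immortalized with TERT plus LT and ST oncogenes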
# [24] = cytotoxicity toward DRD oncogenic fibroblasts, dose response, cell-based, non-viral oncogenic, luminescence (AID 1934); assay type: functional; settings: Homo sapiens
# [25] = growth suppression of PTEN-null colon cells, dose response, cell-based, HCT116 PTEN knockout (AID 1047); assay type: functional;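 note: HCT116 colon tumor cells with PTEN knocked out; cells exposed to compound for 60 hours before readout; potency for loss of cell viability measured by luminescence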
# [26] = growth suppression of beta-catenin-knockout colon cells, dose response, cell-based, HCT116, human colon tumor (AID 1045); assay type: functional;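 note: HCT116 colon tumor cells with beta catenin knocked out; cells exposed to compound for 60 hours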
# [27] = target: Paired box protein Pax-8 (Homo sapiens, UniProt Q06710); assay: inhibitors of PAX8-driven TPO luciferase reporter, dose response, RMG-I cells, cherry-pick (AID 687027); assay type: functional, cell-based;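 note: luciferase reporter driven by Pax8 target thyroperoxidase promoter measured by SteadyGlo luminescence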
# Chain of Paired box protein Pax-8 (Q06710 whole entry): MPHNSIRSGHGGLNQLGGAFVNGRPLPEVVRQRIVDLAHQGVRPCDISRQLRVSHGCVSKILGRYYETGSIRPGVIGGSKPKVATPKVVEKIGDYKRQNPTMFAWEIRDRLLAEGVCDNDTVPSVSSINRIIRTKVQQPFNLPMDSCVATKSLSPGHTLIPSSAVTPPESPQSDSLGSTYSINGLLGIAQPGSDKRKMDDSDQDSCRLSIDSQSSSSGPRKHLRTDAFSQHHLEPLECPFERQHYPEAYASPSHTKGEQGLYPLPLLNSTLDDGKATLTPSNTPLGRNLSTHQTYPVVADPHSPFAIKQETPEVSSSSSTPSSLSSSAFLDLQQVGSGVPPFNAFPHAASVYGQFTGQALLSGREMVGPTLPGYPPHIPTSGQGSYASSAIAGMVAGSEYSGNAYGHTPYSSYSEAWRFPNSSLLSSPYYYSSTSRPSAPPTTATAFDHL
# Chain of Luciferin 4-monooxygenase (P08659 whole entry): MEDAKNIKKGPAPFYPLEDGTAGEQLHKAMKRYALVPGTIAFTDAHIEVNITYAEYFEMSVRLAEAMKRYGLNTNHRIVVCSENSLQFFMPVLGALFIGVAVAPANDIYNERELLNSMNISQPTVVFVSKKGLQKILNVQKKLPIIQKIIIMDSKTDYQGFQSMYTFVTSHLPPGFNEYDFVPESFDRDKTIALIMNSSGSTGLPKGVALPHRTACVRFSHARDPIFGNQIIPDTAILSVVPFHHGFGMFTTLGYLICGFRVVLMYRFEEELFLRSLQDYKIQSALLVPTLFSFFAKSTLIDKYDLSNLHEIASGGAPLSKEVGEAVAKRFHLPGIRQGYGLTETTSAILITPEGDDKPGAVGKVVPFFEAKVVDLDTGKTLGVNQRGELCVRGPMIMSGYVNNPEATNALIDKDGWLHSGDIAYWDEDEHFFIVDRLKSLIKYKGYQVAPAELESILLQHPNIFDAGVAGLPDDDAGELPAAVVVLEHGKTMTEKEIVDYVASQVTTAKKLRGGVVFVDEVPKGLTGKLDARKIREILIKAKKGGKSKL
# T4 sequence (P49327 whole entry, the tested form may be a part): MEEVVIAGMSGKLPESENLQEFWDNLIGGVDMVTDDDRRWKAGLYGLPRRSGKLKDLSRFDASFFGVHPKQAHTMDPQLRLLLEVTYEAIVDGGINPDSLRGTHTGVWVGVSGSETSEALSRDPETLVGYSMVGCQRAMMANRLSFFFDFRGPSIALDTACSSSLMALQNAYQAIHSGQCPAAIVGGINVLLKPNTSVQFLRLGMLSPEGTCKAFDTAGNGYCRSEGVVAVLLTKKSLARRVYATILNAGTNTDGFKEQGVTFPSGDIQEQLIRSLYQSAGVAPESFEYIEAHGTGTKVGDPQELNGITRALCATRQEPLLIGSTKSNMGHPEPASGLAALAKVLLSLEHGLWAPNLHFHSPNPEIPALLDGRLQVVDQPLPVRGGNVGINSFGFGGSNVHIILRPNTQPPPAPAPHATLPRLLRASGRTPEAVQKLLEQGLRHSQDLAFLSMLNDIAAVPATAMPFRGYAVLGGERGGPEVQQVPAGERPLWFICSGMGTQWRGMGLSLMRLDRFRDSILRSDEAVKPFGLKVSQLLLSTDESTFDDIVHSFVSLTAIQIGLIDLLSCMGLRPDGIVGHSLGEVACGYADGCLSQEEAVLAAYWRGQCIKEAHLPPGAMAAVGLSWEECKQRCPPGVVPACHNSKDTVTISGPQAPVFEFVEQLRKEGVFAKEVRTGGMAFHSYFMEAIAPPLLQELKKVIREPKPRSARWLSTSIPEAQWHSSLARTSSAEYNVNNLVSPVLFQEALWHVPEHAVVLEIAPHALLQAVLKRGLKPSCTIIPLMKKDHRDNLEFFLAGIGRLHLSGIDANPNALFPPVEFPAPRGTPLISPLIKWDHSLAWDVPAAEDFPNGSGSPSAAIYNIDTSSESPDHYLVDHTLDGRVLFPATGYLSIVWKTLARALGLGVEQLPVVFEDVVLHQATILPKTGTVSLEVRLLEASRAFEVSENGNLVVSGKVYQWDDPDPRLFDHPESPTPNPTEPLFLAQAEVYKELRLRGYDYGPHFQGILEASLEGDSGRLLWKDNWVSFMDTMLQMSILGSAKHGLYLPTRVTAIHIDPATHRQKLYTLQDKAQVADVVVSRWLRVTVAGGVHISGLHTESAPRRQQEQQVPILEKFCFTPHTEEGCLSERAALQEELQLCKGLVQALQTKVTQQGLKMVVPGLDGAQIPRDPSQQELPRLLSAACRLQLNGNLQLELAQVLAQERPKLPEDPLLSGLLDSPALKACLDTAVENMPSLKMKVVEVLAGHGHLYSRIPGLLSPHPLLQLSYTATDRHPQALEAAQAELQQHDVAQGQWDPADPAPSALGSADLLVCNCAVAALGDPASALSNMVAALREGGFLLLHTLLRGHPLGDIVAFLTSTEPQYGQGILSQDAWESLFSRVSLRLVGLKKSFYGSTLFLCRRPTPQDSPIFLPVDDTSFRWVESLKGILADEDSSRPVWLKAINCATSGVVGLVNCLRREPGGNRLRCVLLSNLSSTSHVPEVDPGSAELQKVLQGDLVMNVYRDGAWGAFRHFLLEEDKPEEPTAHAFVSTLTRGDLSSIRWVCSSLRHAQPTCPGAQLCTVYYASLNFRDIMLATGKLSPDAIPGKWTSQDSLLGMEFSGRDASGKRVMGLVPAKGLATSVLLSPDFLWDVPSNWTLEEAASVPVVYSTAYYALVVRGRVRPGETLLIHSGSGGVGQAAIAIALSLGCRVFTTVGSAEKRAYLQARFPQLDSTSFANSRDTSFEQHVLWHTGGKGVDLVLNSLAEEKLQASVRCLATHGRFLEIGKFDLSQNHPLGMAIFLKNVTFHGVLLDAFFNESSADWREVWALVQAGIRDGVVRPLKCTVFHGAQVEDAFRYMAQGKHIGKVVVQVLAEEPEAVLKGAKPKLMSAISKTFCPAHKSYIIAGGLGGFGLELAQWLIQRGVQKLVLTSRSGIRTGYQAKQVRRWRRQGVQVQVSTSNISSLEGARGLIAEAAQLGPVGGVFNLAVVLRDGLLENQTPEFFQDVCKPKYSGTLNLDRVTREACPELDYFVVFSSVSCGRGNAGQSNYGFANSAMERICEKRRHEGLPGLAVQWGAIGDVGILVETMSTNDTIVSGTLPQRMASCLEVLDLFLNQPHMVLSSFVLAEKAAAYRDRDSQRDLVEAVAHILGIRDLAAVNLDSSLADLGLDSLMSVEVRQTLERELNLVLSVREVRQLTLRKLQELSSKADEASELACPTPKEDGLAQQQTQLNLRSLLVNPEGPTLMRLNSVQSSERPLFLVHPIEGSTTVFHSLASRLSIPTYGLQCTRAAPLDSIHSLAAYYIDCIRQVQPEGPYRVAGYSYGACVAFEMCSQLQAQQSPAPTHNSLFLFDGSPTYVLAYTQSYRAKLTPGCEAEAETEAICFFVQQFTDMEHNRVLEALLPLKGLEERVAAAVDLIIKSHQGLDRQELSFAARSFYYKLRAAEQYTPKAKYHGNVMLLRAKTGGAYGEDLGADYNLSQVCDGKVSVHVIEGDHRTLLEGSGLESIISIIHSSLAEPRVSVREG
compound,measurement,setting,value
Cc1ccc(-c2csc3ncnc(SCc4ccc(C(=O)O)cc4)c23)cc1,IC50,[1],44.6 µM (active)
CC1(C)CC(=O)c2c(oc3ccc(NS(=O)(=O)c4ccc(C(=O)O)cc4)cc23)C1,IC50,[1],26 µM (active)
Cc1snc(S(=O)(=O)/C(C#N)=N/Nc2cccc(C(F)(F)F)c2)c1C#N,EC50,[2],7.53 µM (active)
COc1ccc(-c2nc(C[S+]([O-])CC(=O)NC3CCCCC3C)c(C)o2)cc1 (stereo not drawn),EC50,[3],> 112 µM (not active)
same,EC50,[4],> 112 µM (not active)
Cc1ccccc1C(=O)NC1CCN(C(=O)N2CCOCC2)CC1,EC50,[3],> 112 µM (not active)
same,EC50,[4],> 112 µM (not active)
Cc1cc(N2CCN(c3ccc(C(F)(F)F)cc3[N+](=O)[O-])CC2)c2ccccc2n1,CC50,[5],> 40 µM (active)
same,AC50,[6],0.726 µM (active)
Cc1ccc(NCc2ccc(O)c3ncccc23)cc1C,EC50,[7],> 160 µM (inconclusive)
same,EC50,[8],> 38 µM (not active)
same,CC50,[5],33.9 µM (active)
same,IC50,[9],> 50 µM (not active)
same,IC50,[10],> 79 µM (inactive)
COc1ccc(CNc2nc3ccccc3n2Cc2ccccc2)cc1OC,EC50,[2],7.3 µM (active)
same,AC50,[11],22.4 µM (inconclusive)
O=C(N/C(=C/C=C\c1ccccc1)C(=O)N1CCOCC1)c1ccc(Br)cc1,EC50,[12],> 120 µM (not active)
same,EC50,[13],> 120 µM (not active)
same,EC50,[14],> 120 µM (not active)
same,IC50,[15],7.92 µM (active)
same,IC50,[16],7.63 µM (active)
O=C(CCCN1C(=O)c2ccccc2C1=O)C1=C(NCCO)CC(c2ccccc2)CC1=O (stereo not drawn),EC50,[7],> 150 µM (inactive)
same,IC50,[17],30.4 µM (not active)
CS(=O)(=O)N1CCc2cc(-c3csc(NC(=O)Cc4ccccc4)n3)ccc21,EC50,[12],> 120 µM (not active)
same,EC50,[13],20.9 µM (active)
same,EC50,[14],> 120 µM (not active)
same,EC50,[18],1.08 µM (active)
same,EC50,[19],> 60 µM (not active)
same,IC50,[15],8.79 µM (active)
same,IC50,[16],5.12 µM (active)
CC(C)c1ccc(NC(S)=NC2CCN(Cc3ccccc3)CC2)cc1,CC50,[20],20.6 µM (active)
same,EC50,[3],> 112 µM (not active)
same,EC50,[4],> 112 µM (not active)
OC[C@H]1O[C@@H](n2cnc3c(NCCc4ccccc4)ncnc32)[C@H](O)[C@@H]1O,EC50,[21],15.2 µM (inconclusive)
same,EC50,[22],35.4 µM (active)
same,EC50,[3],> 112 µM (not active)
same,EC50,[4],0.893 µM (active)
same,EC50,[23],> 150 µM (not active)
same,EC50,[24],18.9 µM (active)
CCO/C(O)=C1\C(C)=NC(SCC(=O)Nc2nc(C)cs2)=C(C#N)C1c1cccs1 (stereo not drawn),CC50,[5],> 40 µM (active)
same,EC50,[25],14.5 µM (active)
same,EC50,[26],16.6 µM (active)
O=C(NCCN1C(=O)S/C(=C\c2ccc(OC(F)F)cc2)C1=O)c1cnccn1,EC50,[12],> 120 µM (not active)
same,EC50,[13],26.3 µM (active)
same,EC50,[14],> 120 µM (not active)
same,AC50,[27],15.5 µM (active)
CCOc1ccccc1CNC(=O)C1CCN(c2nnc(C)c3c(C)n(-c4ccc(C)cc4)nc23)CC1,EC50,[12],8.11 µM (active)
same,EC50,[13],12.6 µM (active)
same,EC50,[14],9.02 µM (active)
same,EC50,[18],1.45 µM (active)
same,EC50,[19],9.4 µM (active)
Cc1cc(C)c(NC(=O)C(C)c2cccc(C(=O)c3ccccc3)c2)c(C)c1 (stereo not drawn),EC50,[2],3.26 µM (active)
COCCNc1nc(N)c([N+](=O)[O-])c(NC2CCCCC2)n1,EC50,[12],16.2 µM (active)
same,EC50,[13],> 120 µM (not active)
same,EC50,[14],77.7 µM (active)
CCOC(=O)N1CCN(Cc2cc(=O)oc3cc4c(cc23)CCC4)CC1,EC50,[3],> 112 µM (not active)
same,EC50,[4],> 112 µM (not active)
O=C(C1=C[C@@H](c2csc3ccccc23)C[C@@H](OCCCCO)O1)N1CCN(Cc2ccc3c(c2)OCO3)CC1,CC50,[5],> 40 µM (active)

# — ChEMBL document CHEMBL1201862, “PubChem BioAssay data set” (2004)
